Source: ChEMBL document CHEMBL1153480, “Study on the potential anti-cancer activity of phosphonium and ammonium-based ionic liquids” (2009)

What was measured:
Type in all cases: functional
SF-539 = assay: cells; details: Homo sapiens
Description: Growth inhibition of human SF539 cells assessed as drug level required for 50% reduction in net protein increase by SRB assay relative to control

SNB-75 [1] = assay: cells; details: Homo sapiens
Description: Growth inhibition of human SNB75 cells assessed as drug level required for 50% reduction in net protein increase by SRB assay relative to control

U-251 = assay: cells; details: Homo sapiens
Description: Growth inhibition of human U251 cells assessed as drug level required for 50% reduction in net protein increase by SRB assay relative to control

LOX IMVI [2] = assay: cells; details: Homo sapiens
Description: Growth inhibition of human LOXIMVI cells assessed as drug level required for 50% reduction in net protein increase by SRB assay relative to control

M14 = assay: cells; details: Homo sapiens
Description: Growth inhibition of human M14 cells assessed as drug level required for 50% reduction in net protein increase by SRB assay relative to control

SK-MEL-28 = assay: cells; details: Homo sapiens
Description: Growth inhibition of human SK-MEL-28 cells assessed as drug level required for 50% reduction in net protein increase by SRB assay relative to control

SK-MEL-5 [3] = assay: cells; details: Homo sapiens
Description: Growth inhibition of human SK-MEL-5 cells assessed as drug level required for 50% reduction in net protein increase by SRB assay relative to control

OVCAR-3 = assay: cells; details: Homo sapiens
Description: Growth inhibition of human OVCAR-3 cells assessed as drug level required for 50% reduction in net protein increase by SRB assay relative to control

OVCAR-4 [4] = assay: cells; details: Homo sapiens
Description: Growth inhibition of human OVCAR4 cells assessed as drug level required for 50% reduction in net protein increase by SRB assay relative to control

SN12C = assay: cells; details: Homo sapiens
Description: Growth inhibition of human SN12C cells assessed as drug level required for 50% reduction in net protein increase by SRB assay relative to control

TK-10 = assay: cells; details: Homo sapiens
Description: Growth inhibition of human TK10 cells assessed as drug level required for 50% reduction in net protein increase by SRB assay relative to control

UO-31 [5] = assay: cells; details: Homo sapiens
Description: Growth inhibition of human UO31 cells assessed as drug level required for 50% reduction in net protein increase by SRB assay relative to control

DU-145 [6] = assay: cells; details: Homo sapiens
Description: Growth inhibition of human DU145 cells assessed as drug level required for 50% reduction in net protein increase by SRB assay relative to control

NCI/ADR-RES = assay: cells; details: Homo sapiens
Description: Growth inhibition of human NCI/ADR-RES cells assessed as drug level required for 50% reduction in net protein increase by SRB assay relative to control

A498 = assay: cells; details: Homo sapiens
Description: Growth inhibition of human A498 cells assessed as cell growth at 10 uM by SRB assay

T47D [7] = assay: cells; details: Homo sapiens
Description: Growth inhibition of human T47D cells assessed as drug level required for 50% reduction in net protein increase by SRB assay relative to control

K562 [8] = assay: Cytotoxicity against human K562 cells by SRB assay; details: read-out: LC50 (the source's name)
A549 [9] = assay: Cytotoxicity against human A549 cells by SRB assay; details: read-out: LC50 (the source's name)
NCI-H23 = assay: Cytotoxicity against human NCI-H23 cells by SRB assay; details: read-out: LC50 (the source's name)
NCI-H460 [10] = assay: Cytotoxicity against human NCI-H460 cells by SRB assay; details: read-out: LC50 (the source's name)
SF-268 [11] = assay: Cytotoxicity against human SF268 cells by SRB assay; details: read-out: LC50 (the source's name)
SNB-75 [12] = assay: Cytotoxicity against human SNB75 cells by SRB assay; details: read-out: LC50 (the source's name)
Malme-3M = assay: Cytotoxicity against human MALME-3M cells by SRB assay; details: read-out: LC50 (the source's name)
OVCAR-4 [13] = assay: Cytotoxicity against human OVCAR4 cells by SRB assay; details: read-out: LC50 (the source's name)
SK-OV-3 [14] = assay: Cytotoxicity against human SKOV3 cells by SRB assay; details: read-out: LC50 (the source's name)
786-0 = assay: cells; details: Homo sapiens, read-out: LC50 (the source's name)
Description: Cytotoxicity against human 786-0 cells by SRB assay

cells [15] = details: Homo sapiens, Hs-578T
Description: Growth inhibition of human Hs 578T cells assessed as drug level required for 50% reduction in net protein increase by SRB assay relative to control

ACHN = assay: cells; details: Homo sapiens
Description: Growth inhibition of human ACHN cells assessed as cell growth at 10 uM by SRB assay

UO-31 [16] = assay: cells; details: Homo sapiens; remark: listed apart in the source
Description: Growth inhibition of human UO31 cells assessed as cell growth at 10 uM by SRB assay

PC-3 = assay: cells; details: Homo sapiens
Description: Growth inhibition of human PC3 cells assessed as cell growth at 10 uM by SRB assay

MCF7 = assay: cells; details: Homo sapiens
Description: Growth inhibition of human MCF7 cells assessed as cell growth at 10 uM by SRB assay

HCT-15 = assay: cells; details: Homo sapiens
Description: Growth inhibition of human HCT15 cells assessed as drug level required for 50% reduction in net protein increase by SRB assay relative to control

HCC 2998 [17] = assay: cells; details: Homo sapiens
Description: Growth inhibition of human HCC2998 cells assessed as drug level required for 50% reduction in net protein increase by SRB assay relative to control

COLO 205 = assay: cells; details: Homo sapiens
Description: Growth inhibition of human COLO205 cells assessed as drug level required for 50% reduction in net protein increase by SRB assay relative to control

UO-31 [18] = assay: Cytotoxicity against human UO31 cells by SRB assay; details: read-out: LC50 (the source's name)
DU-145 [19] = assay: Cytotoxicity against human DU145 cells by SRB assay; details: read-out: LC50 (the source's name)
cells [20] = details: Homo sapiens, Hs-578T; read-out: LC50 (the source's name)
Description: Cytotoxicity against human Hs 578T cells by SRB assay

BT-549 = assay: Cytotoxicity against human BT549 cells by SRB assay; details: read-out: LC50 (the source's name)
MDA-MB-468 [21] = assay: Cytotoxicity against human MDA-MB-468 cells by SRB assay; details: read-out: LC50 (the source's name)
CCRF-CEM [22] = assay: cells; details: Homo sapiens
Description: Growth inhibition of human CCRF-CEM cells assessed as cell growth at 10 uM by SRB assay

HL-60(TB) [23] = assay: cells; details: Homo sapiens
Description: Growth inhibition of human HL-60(TB) cells assessed as cell growth at 10 uM by SRB assay

RPMI-8226 [24] = assay: cells; details: Homo sapiens
Description: Growth inhibition of human RPMI8226 cells assessed as cell growth at 10 uM by SRB assay

SR = assay: cells; details: Homo sapiens
Description: Growth inhibition of human SR cells assessed as cell growth at 10 uM by SRB assay

HOP-62 [25] = assay: cells; details: Homo sapiens
Description: Growth inhibition of human HOP62 cells assessed as cell growth at 10 uM by SRB assay

HOP-92 = assay: cells; details: Homo sapiens
Description: Growth inhibition of human HOP92 cells assessed as cell growth at 10 uM by SRB assay

NCI-H322M = assay: cells; details: Homo sapiens
Description: Growth inhibition of human NCI-H322M cells assessed as cell growth at 10 uM by SRB assay

NCI-H460 [26] = assay: cells; details: Homo sapiens
Description: Growth inhibition of human NCI-H460 cells assessed as cell growth at 10 uM by SRB assay

HCC 2998 [27] = assay: cells; details: Homo sapiens; remark: listed apart in the source
Description: Growth inhibition of human HCC2998 cells assessed as cell growth at 10 uM by SRB assay

HCT-116 = assay: cells; details: Homo sapiens
Description: Growth inhibition of human HCT116 cells assessed as cell growth at 10 uM by SRB assay

HT-29 = assay: cells; details: Homo sapiens
Description: Growth inhibition of human HT-29 cells assessed as cell growth at 10 uM by SRB assay

KM12 = assay: cells; details: Homo sapiens
Description: Growth inhibition of human KM12 cells assessed as cell growth at 10 uM by SRB assay

SW-620 = assay: cells; details: Homo sapiens
Description: Growth inhibition of human SW620 cells assessed as cell growth at 10 uM by SRB assay

HOP-62 [28] = assay: cells; details: Homo sapiens; remark: listed apart in the source
Description: Growth inhibition of human HOP62 cells assessed as drug level required for 50% reduction in net protein increase by SRB assay relative to control

EKVX = assay: cells; details: Homo sapiens
Description: Growth inhibition of human EKVX cells assessed as drug level required for 50% reduction in net protein increase by SRB assay relative to control

A549 [29] = assay: cells; details: Homo sapiens
Description: Growth inhibition of human A549 cells assessed as drug level required for 50% reduction in net protein increase by SRB assay relative to control

RPMI-8226 [30] = assay: cells; details: Homo sapiens; remark: listed apart in the source
Description: Growth inhibition of human RPMI8226 cells assessed as drug level required for 50% reduction in net protein increase by SRB assay relative to control

K562 [31] = assay: cells; details: Homo sapiens
Description: Growth inhibition of human K562 cells assessed as drug level required for 50% reduction in net protein increase by SRB assay relative to control

HL-60(TB) [32] = assay: cells; details: Homo sapiens; remark: listed apart in the source
Description: Growth inhibition of human HL-60(TB) cells assessed as drug level required for 50% reduction in net protein increase by SRB assay relative to control

CCRF-CEM [33] = assay: cells; details: Homo sapiens; remark: listed apart in the source
Description: Growth inhibition of human CCRF-CEM cells assessed as drug level required for 50% reduction in net protein increase by SRB assay relative to control

SF-268 [34] = assay: cells; details: Homo sapiens
Description: Growth inhibition of human SF268 cells assessed as drug level required for 50% reduction in net protein increase by SRB assay relative to control

T47D [35] = assay: cells; details: Homo sapiens; remark: listed apart in the source
Description: Growth inhibition of human T47D cells assessed as cell growth at 10 uM by SRB assay

MDA-MB-468 [36] = assay: cells; details: Homo sapiens
Description: Growth inhibition of human MDA-MB-468 cells assessed as cell growth at 10 uM by SRB assay

SNB-19 = assay: cells; details: Homo sapiens
Description: Growth inhibition of human SNB19 cells assessed as cell growth at 10 uM by SRB assay

LOX IMVI [37] = assay: cells; details: Homo sapiens; remark: listed apart in the source
Description: Growth inhibition of human LOXIMVI cells assessed as cell growth at 10 uM by SRB assay

SK-MEL-2 = assay: cells; details: Homo sapiens
Description: Growth inhibition of human SK-MEL-2 cells assessed as cell growth at 10 uM by SRB assay

SK-MEL-5 [38] = assay: cells; details: Homo sapiens; remark: listed apart in the source
Description: Growth inhibition of human SK-MEL-5 cells assessed as cell growth at 10 uM by SRB assay

UACC-257 = assay: cells; details: Homo sapiens
Description: Growth inhibition of human UACC257 cells assessed as cell growth at 10 uM by SRB assay

UACC-62 = assay: cells; details: Homo sapiens
Description: Growth inhibition of human UACC62 cells assessed as cell growth at 10 uM by SRB assay

OVCAR-4 [39] = assay: cells; details: Homo sapiens; remark: listed apart in the source
Description: Growth inhibition of human OVCAR4 cells assessed as cell growth at 10 uM by SRB assay

OVCAR-5 = assay: cells; details: Homo sapiens
Description: Growth inhibition of human OVCAR5 cells assessed as cell growth at 10 uM by SRB assay

SK-OV-3 [40] = assay: cells; details: Homo sapiens
Description: Growth inhibition of human SKOV3 cells assessed as cell growth at 10 uM by SRB assay

Compound: CCCCCCCC[N+](C)(CCCCCCCC)CCCCCCCC.O=S(=O)([N-]S(=O)(=O)C(F)(F)F)C(F)(F)F
- GI50 (SF-539): 514 nM
- GI50 (SNB-75 [1]): 336 nM
- GI50 (U-251): 334 nM
- GI50 (LOX IMVI [2]): 192 nM
- GI50 (M14): 453 nM
- GI50 (SK-MEL-28): 710 nM
- GI50 (SK-MEL-5 [3]): 177 nM
- GI50 (OVCAR-3): 315 nM
- GI50 (OVCAR-4 [4]): 309 nM
- GI50 (SN12C): 367 nM
- GI50 (TK-10): 503 nM
- GI50 (UO-31 [5]): 686 nM
- GI50 (DU-145 [6]): 407 nM
- GI50 (NCI/ADR-RES): 1680 nM
- growth at 10 µM (A498): -100%
- GI50 (T47D [7]): 428 nM
- CC50 (K562 [8]): 4860 nM
- CC50 (A549 [9]): 8580 nM
- CC50 (NCI-H23): 6330 nM
- CC50 (NCI-H460 [10]): 4100 nM
- CC50 (SF-268 [11]): 5500 nM
- CC50 (SNB-75 [12]): 3770 nM
- CC50 (Malme-3M): 4110 nM
- CC50 (OVCAR-4 [13]): 5800 nM
- CC50 (SK-OV-3 [14]): 5120 nM
- CC50 (786-0): 5020 nM
- GI50 (cells [15]): 417 nM
- growth at 10 µM (ACHN): -93.6%
- growth at 10 µM (UO-31 [16]): -100%
- growth at 10 µM (PC-3): -91.3%
- growth at 10 µM (MCF7): -100%
- GI50 (HCT-15): 993 nM
- GI50 (HCC 2998 [17]): 425 nM
- GI50 (COLO 205): 292 nM
- CC50 (UO-31 [18]): 5950 nM
- CC50 (DU-145 [19]): 4440 nM
- CC50 (cells [20]): > 100000 nM
- CC50 (BT-549): 4420 nM
- CC50 (MDA-MB-468 [21]): 2110 nM
- growth at 10 µM (CCRF-CEM [22]): 85.7%
- growth at 10 µM (HL-60(TB) [23]): 32%
- growth at 10 µM (RPMI-8226 [24]): 44.2%
- growth at 10 µM (SR): 28.1%
- growth at 10 µM (HOP-62 [25]): -92.2%
- growth at 10 µM (HOP-92): -70%
- growth at 10 µM (NCI-H322M): -100%
- growth at 10 µM (NCI-H460 [26]): -100%
- growth at 10 µM (HCC 2998 [27]): -98%
- growth at 10 µM (HCT-116): -100%
- growth at 10 µM (HT-29): -100%
- growth at 10 µM (KM12): -100%
- growth at 10 µM (SW-620): -100%
- GI50 (HOP-62 [28]): 787 nM
- GI50 (EKVX): 215 nM
- GI50 (A549 [29]): 1900 nM
- GI50 (RPMI-8226 [30]): 46 nM
- GI50 (K562 [31]): 186 nM
- GI50 (HL-60(TB) [32]): 173 nM
- GI50 (CCRF-CEM [33]): 190 nM
- GI50 (SF-268 [34]): 493 nM
- growth at 10 µM (T47D [35]): -73.3%
- growth at 10 µM (MDA-MB-468 [36]): -90.1%
- growth at 10 µM (SNB-19): -89.6%
- growth at 10 µM (LOX IMVI [37]): -74.7%
- growth at 10 µM (SK-MEL-2): -94.1%
- growth at 10 µM (SK-MEL-5 [38]): -100%
- growth at 10 µM (UACC-257): -95.2%
- growth at 10 µM (UACC-62): -94.5%
- growth at 10 µM (OVCAR-4 [39]): -94.1%
- growth at 10 µM (OVCAR-5): -100%
- growth at 10 µM (SK-OV-3 [40]): -97.8%

Compound: CCCCCCCCCCCCCCCCCCPCCCCCCCCCCCCCC (configuration not stated) [MONO(OCTADECYL(TETRADECYL)PHOSPHONIUM) MONO(HEXAFLUOROPHOSPHATE(V)) MONO(TETRAFLUOROBORATE)]
- GI50 (SF-539): 234 nM
- GI50 (SNB-75 [1]): 223 nM
- GI50 (U-251): 37 nM
- GI50 (LOX IMVI [2]): 50 nM
- GI50 (M14): 87 nM
- GI50 (SK-MEL-28): 376 nM
- GI50 (SK-MEL-5 [3]): 74 nM
- GI50 (OVCAR-3): 118 nM
- GI50 (OVCAR-4 [4]): 125 nM
- GI50 (SN12C): 62 nM
- GI50 (TK-10): 234 nM
- GI50 (UO-31 [5]): 398 nM
- GI50 (DU-145 [6]): 357 nM
- GI50 (NCI/ADR-RES): 947 nM
- growth at 10 µM (A498): -75.6%
- GI50 (T47D [7]): 89 nM
- CC50 (K562 [8]): > 100000 nM
- CC50 (A549 [9]): > 100000 nM
- CC50 (NCI-H23): > 100000 nM
- CC50 (NCI-H460 [10]): > 100000 nM
- CC50 (SF-268 [11]): > 100000 nM
- CC50 (SNB-75 [12]): > 100000 nM
- CC50 (Malme-3M): > 100000 nM
- CC50 (OVCAR-4 [13]): > 100000 nM
- CC50 (SK-OV-3 [14]): > 100000 nM
- CC50 (786-0): > 100000 nM
- GI50 (cells [15]): 84 nM
- growth at 10 µM (ACHN): -58.9%
- growth at 10 µM (UO-31 [16]): -44.8%
- growth at 10 µM (PC-3): -32.7%
- growth at 10 µM (MCF7): -40.8%
- GI50 (HCT-15): 339 nM
- GI50 (HCC 2998 [17]): 297 nM
- GI50 (COLO 205): 243 nM
- CC50 (UO-31 [18]): > 100000 nM
- CC50 (DU-145 [19]): > 100000 nM
- CC50 (cells [20]): > 100000 nM
- CC50 (BT-549): > 100000 nM
- CC50 (MDA-MB-468 [21]): > 100000 nM
- growth at 10 µM (CCRF-CEM [22]): 23.3%
- growth at 10 µM (HL-60(TB) [23]): 24.9%
- growth at 10 µM (RPMI-8226 [24]): 27.2%
- growth at 10 µM (SR): 12.1%
- growth at 10 µM (HOP-62 [25]): -65.6%
- growth at 10 µM (HOP-92): -55.5%
- growth at 10 µM (NCI-H322M): -79.2%
- growth at 10 µM (NCI-H460 [26]): -41.9%
- growth at 10 µM (HCC 2998 [27]): -76.4%
- growth at 10 µM (HCT-116): -13.1%
- growth at 10 µM (HT-29): -45%
- growth at 10 µM (KM12): -52.2%
- growth at 10 µM (SW-620): -43.8%
- GI50 (HOP-62 [28]): 399 nM
- GI50 (EKVX): 206 nM
- GI50 (A549 [29]): 391 nM
- GI50 (RPMI-8226 [30]): 16 nM
- GI50 (K562 [31]): 38 nM
- GI50 (HL-60(TB) [32]): 39 nM
- GI50 (CCRF-CEM [33]): 34 nM
- GI50 (SF-268 [34]): 88 nM
- growth at 10 µM (T47D [35]): -38.5%
- growth at 10 µM (MDA-MB-468 [36]): -62%
- growth at 10 µM (SNB-19): -44.9%
- growth at 10 µM (LOX IMVI [37]): 0.43%
- growth at 10 µM (SK-MEL-2): -64.7%
- growth at 10 µM (SK-MEL-5 [38]): -69.2%
- growth at 10 µM (UACC-257): -59%
- growth at 10 µM (UACC-62): -77.4%
- growth at 10 µM (OVCAR-4 [39]): -71.3%
- growth at 10 µM (OVCAR-5): -70%
- growth at 10 µM (SK-OV-3 [40]): -68.7%
